This is an account of results in patent US8691799B2, “Materials and methods for treatment of cancer and identification of anti-cancer compounds” (priority 2001, dated 2014).

This series in a line: Tolerability observations in treated mice. It is filed as in vivo. An excerpt:
Antitumor Activity in the Nude Mouse Tumor Xenograft Model. Nude mice and C57 BL-6 black mice (National Cancer Institute, Bethesda, Md.) were maintained in accordance with the Institutional Animal Care and Use Committee (IACUC) procedures and guidelines. v-Src- and oncogenic H-Ras-transformed NIH 3T3, A549, MDA-MB-468 and Calu-1 cells were harvested, resuspended in PBS and injected s.c. into the right and left flank (10×10^6 cells per flank) of 8 week old female nude mice as reported previously (Sun, J. et al. Cancer Res., 1999, 59:4919-4926). Similarly, murine B16-F10 Melanoma cells were injected s.c. into the right and left flank (10^6 cells per flank) of C57 black mice. When tumors reached about 150 mm^3, animals were randomized (five animals per group; two tumors per animal) and dosed i.p. with 0.2 ml once daily. […] The tumor volumes were determined by measuring the length (l) and the width (w) and calculating the volume (V=1w^2/2) as described previously (Sun, J. et al. Cancer Res., 1999, 59:4919-4926). Statistical significance between control and treated animals were evaluated by using Student's t-test. For the mouse survival experiments, C57 BL-6 black mice were implanted s.c. with B16-F10 cells (10^5 to 10^6 cells per flank). On day 5 after implantation the mice were randomized (6 animals per group) and treated with either vehicle or JSI-124 (1 mg/Kg/day) for 25 days. Percent surviving mice was determined by monitoring the death of mice until all mice died. Two experiments of 12 animals each (6 control and 6 treated with JSI-124) were carried out. For statistical analysis: for each of the two experiments, mice receiving JSI-124 were compared to those receiving vehicle control with respect to survival using the permutation log rank test as implemented in the statistical software package, ProcStatXact (p-values are two sided and exact).

As for `CC(C)(O)/C=C/C(=O)[C@](C)(O)[C@H]1[C@H](O)C[C@@]2(C)[C@@H]3CC=C4[C@@H](C=C(O)C(=O)C4(C)C)[C@]3(C)C(=O)C[C@]12C` [JSI-124, cucurbitacin I], where the note is “1 mg/kg/day and 0.5 mg/kg/day i.p.”, the “effects on body weight, activity or food intake of mice” value was “no effects on body weight, activity or food intake”. Also, where the note is “1 mg/kg/day i.p.”, the “edema at the local site of drug injection (peritoneal cavity)” value is reported as “caused edema”.
